Values quoted from earlier work, collected in patent US8309061B2, “Formulations and methods for treating rhinosinusitis” (Dey Pharma, L.P., priority 2003, dated 2012).

- solubility in dimethyl sulfoxide and dimethylformamide (dimethyl sulfoxide and dimethylformamide): freely soluble
- solubility in methanol and 95% ethanol (methanol and 95% ethanol): slightly soluble
- solubility in water (water): practically insoluble
Compound: CCC(=O)O[C@]1(C(=O)SCF)[C@H](C)C[C@H]2[C@@H]3C[C@H](F)C4=CC(=O)C=C[C@]4(C)[C@@]3(F)[C@@H](O)C[C@@]21C [Fluticasone propionate, S-(fluromethyl)6α,9-difluoro-11β-17-dihydroxy-16α-methyl-3-oxoandrosta-1,4-diene-17β-carbothioate, 17-propionate]
